According to ChEMBL document CHEMBL4020736, “Synthesis and biological evaluation of novel selective androgen receptor modulators (SARMs) Part III: Discovery of 4-(5-oxopyrrolidine-1-yl)benzonitrile derivative 2f as a clinical candidate” (Bioorg Med Chem, 2017):

Key:
[1] = target: T1, Mineralocorticoid receptor (Homo sapiens, UniProt P08235); assay: Binding affinity to MR (unknown origin)
T1 sequence (P08235 whole entry): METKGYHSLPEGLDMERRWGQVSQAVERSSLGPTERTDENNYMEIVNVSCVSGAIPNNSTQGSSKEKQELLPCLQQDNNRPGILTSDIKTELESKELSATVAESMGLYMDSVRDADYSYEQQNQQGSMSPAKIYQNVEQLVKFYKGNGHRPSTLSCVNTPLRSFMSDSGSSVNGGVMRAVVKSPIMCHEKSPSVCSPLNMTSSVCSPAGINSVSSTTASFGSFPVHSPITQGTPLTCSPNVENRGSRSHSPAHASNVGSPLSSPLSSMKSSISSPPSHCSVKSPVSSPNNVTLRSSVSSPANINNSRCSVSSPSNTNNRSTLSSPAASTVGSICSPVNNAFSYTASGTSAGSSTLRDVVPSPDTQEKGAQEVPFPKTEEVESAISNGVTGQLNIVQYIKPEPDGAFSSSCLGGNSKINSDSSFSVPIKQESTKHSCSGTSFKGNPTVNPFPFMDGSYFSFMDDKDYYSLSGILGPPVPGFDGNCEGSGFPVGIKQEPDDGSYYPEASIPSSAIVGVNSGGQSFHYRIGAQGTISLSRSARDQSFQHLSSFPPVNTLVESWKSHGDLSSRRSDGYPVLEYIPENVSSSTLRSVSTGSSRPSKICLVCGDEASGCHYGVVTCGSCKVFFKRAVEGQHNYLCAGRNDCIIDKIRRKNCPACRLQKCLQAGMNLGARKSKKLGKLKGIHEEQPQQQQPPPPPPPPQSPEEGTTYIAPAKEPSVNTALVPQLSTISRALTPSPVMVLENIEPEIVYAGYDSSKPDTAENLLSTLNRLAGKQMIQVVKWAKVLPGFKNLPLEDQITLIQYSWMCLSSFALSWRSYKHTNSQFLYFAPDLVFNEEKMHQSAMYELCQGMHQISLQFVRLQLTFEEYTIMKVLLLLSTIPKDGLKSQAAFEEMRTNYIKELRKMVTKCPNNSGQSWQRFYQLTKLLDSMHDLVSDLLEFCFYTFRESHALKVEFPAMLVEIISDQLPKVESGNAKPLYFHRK

[2] = AUC (0 to 24 hrs) in Beagle dog at 1 mg/kg, po by LC-MS/MS analysis; format: ADME, organism-based, Canis lupus familiaris; set-up: time < 24 hr, dose 1 mg/kg, route oral; conditions: in vivo
Rattus norvegicus = assay: Androgenic activity in castrated CD(SD)IGS rat assessed as effect on prostate weight at 0.15 to 15 mg/kg, po qd for 7 days co-treated with testosterone propionate by Harshberger assay; format: ADME, organism-based; conditions: in vivo, 168 h
[3] = MRT in Beagle dog at 1 mg/kg, po by LC-MS/MS analysis; format: ADME, organism-based, Canis lupus familiaris; conditions: in vivo
[4] = Total clearance in cynomolgus monkey at 0.1 mg/kg, iv by LC-MS/MS analysis; format: ADME, organism-based, Macaca fascicularis; conditions: in vivo
[5] = Tmax in Crl:CD(SD) rat at 1 mg/kg, po by LC-MS/MS analysis; format: ADME, organism-based; conditions: in vivo
[6] = AUC (0 to 24 hrs) in cynomolgus monkey at 1 mg/kg, po by LC-MS/MS analysis; format: ADME, organism-based, Macaca fascicularis; set-up: dose 1 mg/kg, time < 24 hr, route oral; conditions: in vivo

## CC[C@H]1[C@@H](O)CC(=O)N1c1ccc(C#N)c(C(F)(F)F)c1
[1]
  IC50: > 10 µM
[2]
  AUC(0-t) at 24 h: 1160 ng·h/mL
Rattus norvegicus
  Activity: Non-Toxic
[3]
  MRT: 4.34 h
[4]
  clearance: 14.2 mL/min/kg
[5]
  Tmax: 0.5 h
[6]
  AUC(0-t) at 24 h: 558 ng·h/mL
